Read-outs that look alike come from different tables or passages of the source. Starred links: 1 amine or outer side, 2 acyl side, 3 side chain; linkers in the order of their positions; H or OH if unused. Residues, ends and D or L forms follow the SMILES beside them. Groups on a side chain read outwards from the residue. *: point of attachment. C18 diacid = O=C(O)CCCCCCCCCCCCCCCCC(=O)*; γGlu = O=C(O)[C@H](CCC(=O)[*:2])N[*:1]; Stearoyl = CCCCCCCCCCCCCCCCCC(=O)*; Palmitoyl = CCCCCCCCCCCCCCCC(=O)*; AEEA = NCCOCCOCC(=O)O
Legend:
[1] = Chemical stability of solubilised peptide at 40° C., impurities monitored by RP-HPLC/UPLC; type: physicochemical; details: for Formation rate of peptide related impurities at 40° C.: 2.5 weeks, 100 nmol peptide in 1 ml phosphate buffered saline, pH 7.4
Procedure: The chemical stability of solubilised acylated exendin-4 compounds were monitored by RP-HPLC following incubation at […]
The formation of exendin analogue related impurities relative to control samples stored in the freezer were monitored with a Waters UPLC system. Samples were applied to Acquity UPLC BEH C18 (1.7 μm) 2.1×50 mm column and eluted at a flow rate of 0.9 ml/min with linear stepwise gradients of acetonitrile in 0.1% trifluoroacetic acid (from 5 to 100% acetonitrile for 10 min, and from 100 to 5% acetonitrile for 1 min). The column was heated to 30 C and detection was performed at 214 nm.

human GLP-1 receptor = target: T1, human GLP-1 receptor (Homo sapiens, UniProt P43220); experiment: Functional receptor assay: cAMP formation in plasma membranes of BHK cells expressing the cloned human GLP-1 receptor (GLP1cAMPma); type: biochemical
T1 construct: expressed in transfected cells; host or cells: BHK cells, clone BHK-467-12A; plasma membrane preparation
Procedure: The term “insulinotropic agent” as used herein means a compound which is an agonist of the human GLP-1 receptor, i.e. a compound which stimulates the formation of cAMP in a suitable medium containing the human GLP-1 receptor (one such medium disclosed below). The potency of an insulinotropic agent is determined by calculating the EC50 value from the dose-response curve as described below.
The cells were washed twice in phosphate buffered saline and harvested with Versene. Plasma membranes were prepared from the cells by homogenisation with an Ultraturrax in buffer 1 (20 mM HEPES-Na, 10 mM EDTA, pH 7.4). The homogenate was centrifuged at 48,000×g for 15 min at 4° C. The pellet was suspended by homogenization in buffer 2 (20 mM HEPES-Na, 0.1 mM EDTA, pH 7.4), then centrifuged at 48,000×g for 15 min at 4° C. The washing procedure was repeated one more time. The final pellet was suspended in buffer 2 and used immediately for assays or stored at −80° C.
The functional receptor assay was carried out by measuring cyclic AMP (cAMP) as a response to stimulation by the insulinotropic agent. cAMP formed was quantified by the AlphaScreen™ cAMP Kit (Perkin Elmer Life Sciences). Incubations were carried out in half-area 96-well microtiter plates in a total volume of 50 μL buffer 3 (50 mM Tris-HCl, 5 mM HEPES, 10 mM MgCl2, pH 7.4) and with the following additions: 1 mM ATP, 1 μM GTP, 0.5 mM 3-isobutyl-1-methylxanthine (IBMX), 0.01% Tween-20, 0.1% BSA, 6 μg membrane preparation, 15 μg/mL acceptor beads, 20 μg/mL donor beads preincubated with 6 nM biotinyl-cAMP. […] GTP was freshly prepared for each experiment. The plate was incubated in the dark with slow agitation for three hours at room temperature followed by counting in the Fusion™ instrument (Perkin Elmer Life Sciences). Concentration-response curves were plotted for the individual compounds and EC50 values estimated using a four-parameter logistic model with Prism v. 4.0 (GraphPad, Carlsbad, Calif.).

[2] = cAMP, membranes with human GLP-1 receptor, mean value, read-out: GLP1cAMPma (3693) [EC50 (nM)] Mean Value

T1 sequence (P43220 24-463): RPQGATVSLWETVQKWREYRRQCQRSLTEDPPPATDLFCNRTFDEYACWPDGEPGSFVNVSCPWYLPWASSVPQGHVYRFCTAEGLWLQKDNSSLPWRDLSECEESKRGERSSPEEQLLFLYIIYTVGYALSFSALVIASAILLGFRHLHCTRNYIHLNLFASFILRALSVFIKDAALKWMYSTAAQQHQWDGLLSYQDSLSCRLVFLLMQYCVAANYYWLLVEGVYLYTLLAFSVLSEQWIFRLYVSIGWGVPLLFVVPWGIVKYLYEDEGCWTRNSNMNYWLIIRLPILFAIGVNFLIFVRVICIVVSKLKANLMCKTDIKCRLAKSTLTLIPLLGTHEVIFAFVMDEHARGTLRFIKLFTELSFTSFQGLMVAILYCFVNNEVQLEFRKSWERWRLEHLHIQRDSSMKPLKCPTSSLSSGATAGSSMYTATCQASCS

Molecule	Formation rate of peptide related impurities at 40° C. [1]	EC50 (human GLP-1 receptor; [2])	EC50 (human GLP-1 receptor)	formation rate of peptide related impurities ([1]; 100 nmol/ml in 50 mM phosphate buffer with 0.05% Tween 80, pH 8.0)
CCCCCCCCCCCCCCCCCC(=O)NCCOCCOCC(=O)NCCOCCOCC(=O)NCCOCCOCC(=O)NCCCC[C@H](NC(=O)[C@@H](NC(=O)[C@H](C)NC(=O)[C@H](CCC(=O)O)NC(=O)[C@H](CCC(=O)O)NC(=O)[C@H](CCC(=O)O)NC(=O)[C@H](CC(C)C)NC(=O)[C@H](CCC(N)=O)NC(=O)[C@H](CCCNC(=N)N)NC(=O)[C@H](CO)NC(=O)[C@H](CC(C)C)NC(=O)[C@H](CC(=O)O)NC(=O)[C@H](CO)NC(=O)[C@@H](NC(=O)[C@H](Cc1ccccc1)NC(=O)[C@@H](NC(=O)CNC(=O)[C@H](CCC(=O)O)NC(=O)CNC(=O)[C@@H](N)Cc1c[nH]cn1)[C@@H](C)O)[C@@H](C)O)C(C)C)C(=O)N[C@@H](CC(C)C)C(=O)N[C@@H](Cc1ccccc1)C(=O)N[C@H](C(=O)N[C@@H](CCC(=O)O)C(=O)N[C@@H](Cc1c[nH]c2ccccc12)C(=O)N[C@@H](CC(C)C)C(=O)N[C@@H](CCCNC(=N)N)C(=O)N[C@@H](CCC(N)=O)C(=O)NCC(=O)NCC(=O)N1CCC[C@H]1C(=O)N[C@@H](CO)C(=O)N[C@@H](CO)C(=O)NCC(=O)N[C@@H](C)C(=O)N1CCC[C@H]1C(=O)N1CCC[C@H]1C(=O)N1CCC[C@H]1C(=O)N[C@@H](CO)C(N)=O)[C@@H](C)CC [Example 14, N-ε^20-(2-(2-(2-(2-(2-(2-(2-(2-(2-(Octadecanoylamino)ethoxy)ethoxy)acetylamino)ethoxy)ethoxy)acetyl-amino)ethoxy)ethoxy)acetyl))[Arg^12,27,Gln^28,Leu^14,Lys^20 Exendin-4(1-39)amide] (H-HGEGTFTSDLSRQLEEEAVK([AEEA-AEEA-AEEA-Stearoyl])LFIEWLRQGGPSSGAPPPS-NH2; N-terminus assumed)	1.5 %/week	0.017 nM	–	–
CCCCCCCCCCCCCCCC(=O)N[C@@H](CCC(=O)NCCOCCOCC(=O)NCCOCCOCC(=O)NCCCC[C@H](NC(=O)[C@H](CCC(N)=O)NC(=O)[C@H](CCCNC(=N)N)NC(=O)[C@H](CO)NC(=O)[C@H](CC(C)C)NC(=O)[C@H](CC(=O)O)NC(=O)[C@H](CO)NC(=O)[C@@H](NC(=O)[C@H](Cc1ccccc1)NC(=O)[C@@H](NC(=O)CNC(=O)[C@H](CCC(=O)O)NC(=O)CNC(=O)[C@@H](N)Cc1c[nH]cn1)[C@@H](C)O)[C@@H](C)O)C(=O)N[C@@H](CCC(=O)O)C(=O)N[C@@H](CCC(=O)O)C(=O)N[C@@H](CCC(=O)O)C(=O)N[C@@H](C)C(=O)N[C@H](C(=O)N[C@@H](CCCNC(=N)N)C(=O)N[C@@H](CC(C)C)C(=O)N[C@@H](Cc1ccccc1)C(=O)N[C@H](C(=O)N[C@@H](CCC(=O)O)C(=O)N[C@@H](Cc1c[nH]c2ccccc12)C(=O)N[C@@H](CC(C)C)C(=O)N[C@H](C(=O)N[C@@H](CCCNC(=N)N)C(=O)NCC(=O)NCC(=O)N1CCC[C@H]1C(=O)N[C@@H](CO)C(=O)N[C@@H](CO)C(=O)NCC(=O)N[C@@H](C)C(=O)N1CCC[C@H]1C(=O)N1CCC[C@H]1C(=O)N1CCC[C@H]1C(=O)N[C@@H](CO)C(N)=O)C(C)C)[C@@H](C)CC)C(C)C)C(=O)O [Example 25] (H-HGEGTFTSDLSRQK([AEEA-AEEA-γGlu-Palmitoyl])EEEAVRLFIEWLVRGGPSSGAPPPS-NH2; N-terminus assumed)	3.0 %/week	0.037 nM	–	–
CCCCCCCCCCCCCCCCCC(=O)NCCOCCOCC(=O)NCCOCCOCC(=O)NCCOCCOCC(=O)NCCCC[C@H](NC(=O)[C@H](CCC(N)=O)NC(=O)[C@H](CCCNC(=N)N)NC(=O)[C@H](CO)NC(=O)[C@H](CC(C)C)NC(=O)[C@H](CC(=O)O)NC(=O)[C@H](CO)NC(=O)[C@@H](NC(=O)[C@H](Cc1ccccc1)NC(=O)[C@@H](NC(=O)CNC(=O)[C@H](CCC(=O)O)NC(=O)CNC(=O)[C@@H](N)Cc1c[nH]cn1)[C@@H](C)O)[C@@H](C)O)C(=O)N[C@@H](CCC(=O)O)C(=O)N[C@@H](CCC(=O)O)C(=O)N[C@@H](CCC(=O)O)C(=O)N[C@@H](C)C(=O)N[C@H](C(=O)N[C@@H](CCCNC(=N)N)C(=O)N[C@@H](CC(C)C)C(=O)N[C@@H](Cc1ccccc1)C(=O)N[C@H](C(=O)N[C@@H](CCC(=O)O)C(=O)N[C@@H](Cc1c[nH]c2ccccc12)C(=O)N[C@@H](CC(C)C)C(=O)N[C@H](C(=O)N[C@@H](CCCNC(=N)N)C(=O)NCC(=O)NCC(=O)N1CCC[C@H]1C(=O)N[C@@H](CO)C(=O)N[C@@H](CO)C(=O)NCC(=O)N[C@@H](C)C(=O)N1CCC[C@H]1C(=O)N1CCC[C@H]1C(=O)N1CCC[C@H]1C(=O)N[C@@H](CO)C(N)=O)C(C)C)[C@@H](C)CC)C(C)C [Example 26, N-ε^14-(2-(2-(2-(2-(2-(2-(2-(2-(2-(Octadecanoylamino)ethoxy)ethoxy)acetylamino)ethoxy)ethoxy)acetyl-amino)ethoxy)ethoxy)acetyl)[Arg^12,Lys^14,Val^27,Arg^28]Exendin-4-(1-39)-amide] (H-HGEGTFTSDLSRQK([AEEA-AEEA-AEEA-Stearoyl])EEEAVRLFIEWLVRGGPSSGAPPPS-NH2; N-terminus assumed)	2.0 %/week	0.088 nM	–	–
CC[C@H](C)[C@H](NC(=O)[C@H](Cc1ccccc1)NC(=O)[C@H](CC(C)C)NC(=O)[C@H](CCCNC(=N)N)NC(=O)[C@@H](NC(=O)[C@H](C)NC(=O)[C@H](CCC(=O)O)NC(=O)[C@H](CCC(=O)O)NC(=O)[C@H](CCC(=O)O)NC(=O)[C@H](CCCCNC(=O)COCCOCCNC(=O)COCCOCCNC(=O)CCCCCCCCCCCCCCCCC(=O)O)NC(=O)[C@H](CCC(N)=O)NC(=O)[C@H](CCCNC(=N)N)NC(=O)[C@H](CO)NC(=O)[C@H](CC(C)C)NC(=O)[C@H](CC(=O)O)NC(=O)[C@H](CO)NC(=O)[C@@H](NC(=O)[C@H](Cc1ccccc1)NC(=O)[C@@H](NC(=O)CNC(=O)[C@H](CCC(=O)O)NC(=O)CNC(=O)[C@@H](N)Cc1c[nH]cn1)[C@@H](C)O)[C@@H](C)O)C(C)C)C(=O)N[C@@H](CCC(=O)O)C(=O)N[C@@H](Cc1c[nH]c2ccccc12)C(=O)N[C@@H](CC(C)C)C(=O)N[C@H](C(=O)N[C@@H](CCCNC(=N)N)C(=O)NCC(=O)NCC(=O)N1CCC[C@H]1C(=O)N[C@@H](CO)C(=O)N[C@@H](CO)C(=O)NCC(=O)N[C@@H](C)C(=O)N1CCC[C@H]1C(=O)N1CCC[C@H]1C(=O)N1CCC[C@H]1C(=O)N[C@@H](CO)C(N)=O)C(C)C [Example 27] (H-HGEGTFTSDLSRQK([AEEA-AEEA-C18 diacid])EEEAVRLFIEWLVRGGPSSGAPPPS-NH2; N-terminus assumed)	–	3.65 nM	–	–
CCCCCCCCCCCCCCCC(=O)N[C@@H](CCC(=O)NCCOCCOCC(=O)NCCOCCOCC(=O)NCCCC[C@H](NC(=O)[C@@H](NC(=O)[C@H](C)NC(=O)[C@H](CCC(=O)O)NC(=O)[C@H](CCC(=O)O)NC(=O)[C@H](CCC(=O)O)NC(=O)[C@H](CC(C)C)NC(=O)[C@H](CCC(N)=O)NC(=O)[C@H](CCC(N)=O)NC(=O)[C@H](CO)NC(=O)[C@H](CC(C)C)NC(=O)[C@H](CC(=O)O)NC(=O)[C@H](CO)NC(=O)[C@@H](NC(=O)[C@H](Cc1ccccc1)NC(=O)[C@@H](NC(=O)CNC(=O)[C@H](CCC(=O)O)NC(=O)CNC(=O)[C@@H](N)Cc1c[nH]cn1)[C@@H](C)O)[C@@H](C)O)C(C)C)C(=O)N[C@@H](CC(C)C)C(=O)N[C@@H](Cc1ccccc1)C(=O)N[C@H](C(=O)N[C@@H](CCC(=O)O)C(=O)N[C@@H](Cc1c[nH]c2ccccc12)C(=O)N[C@@H](CC(C)C)C(=O)N[C@@H](CCCCN)C(=O)N[C@@H](CCC(N)=O)C(=O)NCC(=O)NCC(=O)N1CCC[C@H]1C(=O)N[C@@H](CO)C(=O)N[C@@H](CO)C(=O)NCC(=O)N[C@@H](C)C(=O)N1CCC[C@H]1C(=O)N1CCC[C@H]1C(=O)N1CCC[C@H]1C(=O)N[C@@H](CO)C(N)=O)[C@@H](C)CC)C(=O)O [Example 48] (H-HGEGTFTSDLSQQLEEEAVK([AEEA-AEEA-γGlu-Palmitoyl])LFIEWLKQGGPSSGAPPPS-NH2; N-terminus assumed)	–	–	0.021 nM	–
Exendin-4 [reference compound]	–	–	–	40-50 % per week

Reference: patent US9012398B2, “Acylated exendin-4 compounds” (priority 2006, dated 2015)
